We go through 14 compounds from patent publication US4450272A, “Antiatherosclerotic 1-piperazine-thicarboxamides” (American Cyanamid Company, priority 1982, dated 1984).

Assay [1] has as its system serum lipids (sterol, triglycerides). The assay can be described thus: Ability to lower lipid levels in mammals (serum cholesterol and triglycerides in rats, 5 days in diet). Type of assay: in vivo, male rats COBS, CD, SD strain. The note with it: male rats, oral, 0.1% compound in diet, vs control; for inhibition in vivo at 0.1 % in diet: Rattus norvegicus, 120 h, read-out: % Lowering of Serum Triglycerides. Here is the method: The compounds were also tested for their ability to lower lipid levels in mammals. The compounds were administered orally admixed with diet to groups of four male rats COBS, CD, SD strain from Charles River Breeding Laboratories, Inc., Wilmington, Mass. A control group of eight rats was maintained on the diet alone; test groups were maintained on the diet plus the indicated percentage of test compound by weight. After 5 days treatment, serum cholesterol and triglyceride concentrations were determined by direct enzymatic procedures using a Centrifichem® System 400 autoanalyzer (Union Carbide Co.). Cholesterol concentrations were determined by the combined cholesterol esterase-cholesterol oxidase procedure of Roelschlau et. al., Zeit. Klin. Chem. Klin. Biochem., 12, 226 (1974). Triglycerides were determined by the combined method of lipase catalyzed hydrolysis of triglycerides to glycerol and free fatty acids [Bucolo, G. and David, H., Clin. Chem., 19, 476 (1973) and Wahlefeld, A. W., in "Methods of Enzymatic Analysis", Vol. 4, Bergmeyer, H. U., Editor, Academic Press, New York, N.Y. (1974), pp. 1831-1835] and the enzymatic oxidation of the glycerol which leads to the production of colored formazan [Stavropoulos, W. S. and Crouch, R. D., Clin. Chem., 20, No. 7, 857 (1974)]. […] Compounds which produce statistically significant lowering of either sterol or triglycerides are considered to be active.

Assay [2] has as its target T1, fatty acyl CoA:cholesterol acyl transferase (ACAT) (Rattus norvegicus, UniProt O70536).
T1 construct: The supernatant, containing the microsomal fraction, served as the source of the cholesterol-esterifying enzyme; from tissue; host or cells: rat adrenals, 1000 x g supernatant containing the microsomal fraction
T1 sequence (O70536 1-545): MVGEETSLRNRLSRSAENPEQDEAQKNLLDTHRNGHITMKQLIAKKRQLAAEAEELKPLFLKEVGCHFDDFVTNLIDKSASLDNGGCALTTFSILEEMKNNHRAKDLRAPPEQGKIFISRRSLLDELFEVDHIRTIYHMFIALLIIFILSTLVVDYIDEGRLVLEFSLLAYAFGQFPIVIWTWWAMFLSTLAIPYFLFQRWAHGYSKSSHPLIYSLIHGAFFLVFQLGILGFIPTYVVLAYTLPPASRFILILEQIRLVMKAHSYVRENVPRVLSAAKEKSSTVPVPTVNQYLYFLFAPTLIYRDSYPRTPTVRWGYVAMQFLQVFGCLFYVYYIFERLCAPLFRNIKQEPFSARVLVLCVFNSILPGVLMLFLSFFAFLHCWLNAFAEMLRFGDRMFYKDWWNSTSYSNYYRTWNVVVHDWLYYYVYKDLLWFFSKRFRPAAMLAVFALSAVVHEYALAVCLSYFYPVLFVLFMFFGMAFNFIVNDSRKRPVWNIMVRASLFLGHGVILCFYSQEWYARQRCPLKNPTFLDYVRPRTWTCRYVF
Kind of assay: Inhibition of ACAT (fatty acyl CoA:cholesterol acyl transferase) in rat adrenal supernatant. To be noted: rat adrenals, final concentration 5.2 μg./ml., pH 7.4, 37° C. In kind it is biochemical. The method, then:
Compounds were tested for their ability to inhibit ACAT according to the following procedure:
Rat adrenals were homogenized in 0.2 M monobasic potassium phosphate buffer, pH 7.4, and centrifuged at 1000 times gravity for 15 minutes at 5° C. The supernatant, containing the microsomal fraction, served as the source of the cholesterol-esterifying enzyme, fatty acyl CoA:cholesterol acyl transferase (ACAT). A mixture comprising 50 parts of adrenal supernatant, 10 parts of albumin (BSA) (50 mg./ml.), 3 parts of test compound (final concentration 5.2 μg./ml.) and 500 parts of buffer was preincubated at 37° C. for 10 minutes. After treatment with 20 parts of oleoyl CoA (^14 C -0.4 μCi) the mixture was incubated at 37° C. for 10 minutes. A control mixture, omitting the test compound, was prepared and treated in the same manner. The lipids from the incubation mixture were extracted into an organic solvent and separated by thin-layer chromatography. The cholesterol ester fraction was counted in a scintillation counter. This procedure is a modification of that described by Hashimoto, et. al., Life Scie., 12 (Part II), 1-12 (1973).
Compounds which produce a statistically significant inhibition of the ACAT enzyme are considered to be active.

In the next assay the test system is aortic sterol content. Kind of assay: Ability to decrease aortic sterol content without effecting serum sterol, cholesterol-fed cockerels. In kind it is in vivo, Day-old-cockerels. Also noted: key: Active: Compounds which produce statistically significant decreases in the aortic sterol content without having an effect on serum sterol are considered to be active. To be noted: 525 mg. test compound and 20 g. cholesterol per kg. of diet, 14 days. Here is the method: The compounds were further tested for their ability to decrease aortic sterol content without effecting serum sterol.
Day-old-cockerels were placed on diets consisting of pullet starter mash supplemented with either 20 g. cholesterol (control group) or 20 g. cholesterol and 525 mg. test compound (drug-treated group) per kg. of diet.
For the control diet 20 g. of cholesterol is dissolved in 200 ml. of chloroform, mixed into one kg. of pullet starter mash and then the chloroform is removed by evaporation.
For the drug-treatment group 525 mg. of the test compound is dissolved in 100 ml. of chloroform, mixed into a diet prepared as described above and then the chloroform is evaporated.
The cockerels were housed three per cage and given water and their respective diet ad libitum for 14 days. Blood was collected by cardiac puncture and the serum was saponified [Trinder, P., Analyst, 77, 321 (1952)] and extracted and the cholesterol content determined [Zlatkis, A. et. al., J. Lab. Clin. Med., 41, 486 (1953)]. The aortae were removed, cleaned of adventitial tissue and the sterol content determined according to the above procedures. Compounds which produce statistically significant decreases in the aortic sterol content without having an effect on serum sterol are considered to be active.

Consider `S=C(Nc1c(Cl)cccc1Cl)N1CCN(c2cnccn2)CC1` [2',6'-Dichloro-4-(2-pyrazinyl)-1-piperazinethiocarboxanilide], for which the inhibition in vivo at 0.1 % in diet in assay [1] was 37%.

`S=C(Nc1ccccc1Cl)N1CCN(c2cnccn2)CC1` [2'-Chloro-4-(2-pyrazinyl)-1-piperazinethiocarboxanilide]: in assay [1], the inhibition in vivo at 0.1 % in diet is 49%. For `Fc1ccccc1NC(=S)N1CCN(c2cnccn2)CC1` [2'-Fluoro-4-(2-pyrazinyl)-1-piperazinethiocarboxanilide], in assay [1], the inhibition in vivo at 0.1 % in diet stood at 21%.

The term inhibition denotes how much of the control response was suppressed. Regarding `S=C(Nc1ccc(Cl)cc1)N1CCN(c2cnccn2)CC1` [4'-Chloro-4-(2-pyrazinyl)-1-piperazinethiocarboxanilide], the inhibition in vivo at 0.1 % in diet in assay [1] is 49%. In assay [2], this compound returned an inhibition at 5.2 µg/mL of 31%.

As to `N#Cc1ccc(NC(=S)N2CCN(c3cnccn3)CC2)cc1` [4'-Cyano-4-(2-pyrazinyl)-1-piperazinethiocarboxanilide], the “Result (decrease of aortic sterol content without effect on serum sterol)” value in the assay with aortic sterol content is given as “Active”. Also, in assay [1], the inhibition in vivo at 0.1 % in diet was 55%.

For `Fc1ccc(NC(=S)N2CCN(c3cnccn3)CC2)cc1` [4'-Fluoro-4-(2-pyrazinyl)-1-piperazinethiocarboxanilide], the inhibition in vivo at 0.1 % in diet in assay [1] worked out at 37%. In assay [2], `CC(C)c1ccc(NC(=S)N2CCN(c3cnccn3)CC2)cc1` [4'-Isopropyl-4-(2-pyrazinyl)-1-piperazinethiocarboxanilide] returned an inhibition at 5.2 µg/mL of 56%.

On to `CCNC(=S)N1CCN(c2cnccn2)CC1` [N--Ethyl-4-(2-pyrazinyl)-1-piperazinethiocarboxamide], for which the “Result (decrease of aortic sterol content without effect on serum sterol)” value with aortic sterol content is recorded as “Active”. As for `S=C(Nc1ccccc1)N1CCN(c2cnccn2)CC1` [N--Phenyl-4-(2-pyrazinyl)-1-piperazinethiocarboxamide], the “Result (decrease of aortic sterol content without effect on serum sterol)” value in the assay on aortic sterol content is “Active”. The inhibition in vivo at 0.1 % in diet in assay [1] worked out at 52%. Turning to `S=C(NC1CCCCC1)N1CCN(c2cnccn2)CC1` [N-Cyclohexyl-4-(2-pyrazinyl)-1-piperazinethiocarboxamide], the inhibition in vivo at 0.1 % in diet in assay [1] worked out at 43%. The inhibition at 5.2 µg/mL in assay [2] came to 31%. For the compound `CCNC(=S)N1CCN(c2ccc3ccccc3n2)CC1` [N-Ethyl-4-(2-quinolyl)-1-piperazinethiocarboxamide], the inhibition at 5.2 µg/mL in assay [2] was 48%.

On to `CCNC(=S)N1CCN(c2cncc(OC)n2)CC1` [N-Ethyl-4-(6-methoxy-2-pyrazinyl)-1-piperazinethiocarboxamide], for which, in assay [1], the inhibition in vivo at 0.1 % in diet came out at 38%. The compound also had an inhibition at 5.2 µg/mL in assay [2] of 40%.

Regarding `CNC(=S)N1CCN(c2cnccn2)CC1` [N-Methyl-4-(2-pyrazinyl)-1-piperazinethiocarboxamide], the “Result (decrease of aortic sterol content without effect on serum sterol)” value with aortic sterol content is on record as “Active”. Moreover, the inhibition in vivo at 0.1 % in diet in assay [1] stood at 31%. In the case of `S=C(NCCc1ccccc1)N1CCN(c2cnccn2)CC1` [N-Phenethyl-4-(2-pyrazinyl)-1-piperazinethiocarboxamide], the “% Lowering of Serum Sterol” value in assay [1] came out at 16%. The compound further yielded an inhibition at 5.2 µg/mL in assay [2] of 33%.
